Source: PubChem BioAssay (NCI)
Where “and” joins values, the source holds several entries; their conditions need not be identical. Equal values may be shown once.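 Briefly, cells in 96-well plates were exposed to five compound concentrations for 48 h, and endpoints were estimated by linear interpolation. The concentration for 50% growth inhibition is given as GI50. The concentration for full growth arrest is given as TGI.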

Columns and labels:
Test in all cases: NCI tumour cell line growth inhibition, 48 h
HOP-62 NSCLC = test system: HOP-62 NSCLC
NCI-H460 lung = test system: NCI-H460 lung
NCI-H226 lung = test system: NCI-H226 lung
K-562 leukemia = test system: K-562 leukemia
SK-MEL-5 melanoma = test system: SK-MEL-5 melanoma
MCF7 breast = test system: MCF7 breast
DU-145 prostate = test system: DU-145 prostate
HT29 colon = test system: HT29 colon
UACC-62 melanoma = test system: UACC-62 melanoma
A549 NSCLC = test system: A549 NSCLC

| SMILES | GI50 (HOP-62 NSCLC) [µM] | TGI (HOP-62 NSCLC) [µM] | GI50 (NCI-H460 lung) [µM] | TGI (NCI-H460 lung) | GI50 (NCI-H226 lung) [µM] | TGI (NCI-H226 lung) [µM] | GI50 (K-562 leukemia) [µM] | TGI (K-562 leukemia) [µM] | GI50 (SK-MEL-5 melanoma) [µM] | TGI (SK-MEL-5 melanoma) | GI50 (MCF7 breast) [µM] | TGI (MCF7 breast) | GI50 (DU-145 prostate) [µM] | TGI (DU-145 prostate) | GI50 (HT29 colon) [µM] | TGI (HT29 colon) | GI50 (UACC-62 melanoma) [µM] | TGI (UACC-62 melanoma) [µM] | GI50 (A549 NSCLC) [µM] | TGI (A549 NSCLC) |
| --- | --- | --- | --- | --- | --- | --- | --- | --- | --- | --- | --- | --- | --- | --- | --- | --- | --- | --- | --- | --- |
| Nc1nc2c(c3ncccc13)C(c1cccc(Cl)c1)Cc1ncccc1-2 (centres undefined) | 2.45 | 18.1 | 3.03 | 22.6 µM | 19.6 | 43.2 | 0.53 | > 100 | 1.34 | 14.7 µM | 0.514 | 17.6 µM | 2.77 | 24.9 µM | 0.805 | 10.8 µM | 0.628 | 16.6 | 3.08 | > 100 µM |
| C#CCN1CCN(C(=S)N/N=C(\C)c2ccccn2)CC1 | 0.124 | 5.89 | – | 4.17 µM and 2.75 µM | – | 4.66 | 0.00334 | 14 | – | 5.05 µM and 2.86 µM | < 0.001 | 2.73 µM and 2.9 µM | 1.19 | 4.74 µM and 6.36 µM | 0.0028 | 3.74 µM and 8.33 µM | – | – | 0.273 | 8.09 µM and 2.16 µM |
| O=C(Oc1ccc([N+](=O)[O-])cc1)N1CCN(Cc2cccc(Oc3ccccc3)c2)CC1 | > 100 | > 100 | 99.3 | > 100 µM | > 100 | > 100 | 34.1 | > 100 | 18.5 | 58.7 µM | 37.1 | > 100 µM | > 100 | > 100 µM | 40.6 | > 100 µM | 13.6 | > 100 | > 73.6 | > 100 µM |
| CCc1cccc(CC)c1NC(=S)NC(=O)c1ccc(Br)cc1 | – | > 100 | – | 41.6 µM | – | > 95.5 | – | > 100 | – | > 71.6 µM | – | 71.7 µM | – | > 100 µM | – | > 100 µM | – | > 100 | – | > 100 µM |
| CN(C)CCNC(=O)c1cccc2cc3ccccc3nc12 | 0.961 | 6.68 | 0.426 | 1.98 µM | 0.961 | 3.85 | 1.88 | 18.1 | 1.25 | 2.54 µM | 0.612 | 11.4 µM | 1.8 | 4.37 µM | 0.774 | 3.15 µM | 1.42 | 3.25 | – | – |
| COc1cc2c3c(n(CCN)c(=O)c2cc1OC)-c1cc2c(cc1C3=O)OCO2 | 0.122 | 0.774 | < 0.01 | 3.24 µM | 0.769 | 2.55 | 0.0969 | > 100 | < 0.01 | 0.0975 µM | 0.0832 | 2.98 µM | 0.0401 | 1.13 µM | – | – | 0.134 | 1.51 | 0.506 | > 23.7 µM |
| N#C/C(=C\c1ccc(Br)cc1)n1nnc2cccc(F)c21 | 2.38 | 8.49 | 1.97 | 4.21 µM | 1.57 | 3.45 | 0.386 | > 100 | 1.41 | 2.75 µM | 0.445 | 1.98 µM | 1.51 | 2.85 µM | – | – | 1.35 | 3.46 | 2.8 | 13.2 µM |
